Earlier results, collected in paper PMC4585333, “Novel Regulator of Acylated Ghrelin, CF801, Reduces Weight Gain, Rebound Feeding after a Fast, and Adiposity in Mice” (Frontiers in Endocrinology, 2015).

Columns and labels:
[1] = cited from earlier work
Text: One potential target for the control of body weight and appetite is the gut–brain peptide ghrelin. Ghrelin, a 28-amino-acid peptide produced in the X/A-like cells of the gastric oxyntic mucosa lining the stomach, is a key regulator of both short- and long-term energy homeostasis ([1]–[3]). Circulating ghrelin levels rise in anticipation of a meal and subside once the organism is satiated ([4]–[7]).

[2] = effects appear similar to those of CF801; ref [74], [75]; cited from earlier work
Protocol: Given the high amino acid similarity between CF801 and desacyl ghrelin, it is possible that CF801 acts like an analog of desacyl ghrelin. […] Alternatively, CF801 may reduce acylated ghrelin simply by reducing GOAT mRNA, and thus acyl ghrelin levels, without altering GOAT activity at least in the way that this is tested in vitro. While the mechanisms underlying these ef ...

GOAT = conditions: microsomal assay; ref [56]; cited from earlier work
Text: An approach was undertaken to design a novel GOAT inhibitor, resulting in a compound we named CF801. The first five amino acids of CF801 derive from studies carried out in 2008 by Yang et al., who examined the inhibitory effect of certain pentapeptides (e.g., GSAFL-NH2) on GOAT using a microsomal assay ([56]). […] In synthesizing CF801, we extended and modified the original GSAFL-NH2 ...

ghrelin
feeding after injection ([1]; injections of ghrelin, ref [35]–[37]): vigorous feeding bouts | respiratory exchange ratio (RER) ([1]; mice receiving daily injections of ghrelin, ref [3]): increases in RER

desacyl ghrelin
weight gain, ghrelin secretion and adipose tissue accumulation [2]: decrease in weight gain, ghrelin secretion, and adipose tissue accumulation

GSAFL-NH2
inhibitory activity on GOAT (GOAT): showed inhibitory activity on GOAT
